In US20250368616A1, “NITROGEN-CONTAINING HETEROCYCLIC DERIVATIVE INHIBITOR, AND PREPARATION METHOD THEREFOR AND USE THEREOF” (SHANGHAI HANSOH BIOMEDICAL CO., LTD., priority 2021, published 2025):
pIC50: −log10 of the molar value.

The compounds below were run on Ba/F3 EGFR Del19/C797S cells (assay: Cell proliferation inhibition assay (Cell Titer-Glo), Ba/F3 EGFR Del19/C797S). Details: 72 hours, read-out: Ba/F3 EGFR Del19_C797S IC50.
Assay type: cell-based
From the text: Test Example 2: Cell Proliferation Inhibition Assay
Experimental objective: The objective of this test example is to test the inhibitory activity of compounds on the proliferation of different EGFR C797S drug-resistant mutant cell lines Ba/F3 EGFR Del19/T790M/C797S, Ba/F3 EGFR L858R/T790M/C797S, and Ba/F3 EGFR Del19/C797S.
• Ba/F3 EGFR Del19/T790M/C797S cells were purchased from KYinno Biotechnology Co., Ltd.; • Ba/F3 EGFR Del19/C797S cells were purchased from CoBioer Biosciences Co., Ltd.; • Ba/F3 EGFR L858R/T790M/C797S cells were purchased from CoBioer Biosciences Co., Ltd.; • Cell Titer-Glo was purchased from Promega, with a catalog number of G7573; • RPMI 1640 was purchased from Gibco, with a catalog number of 22400089; • FBS was purchased from Gibco, with a catalog number of 10091148; • cell culture plates were purchased from Corning, with a catalog number of 3610.
The inhibitory activity of the compound on the proliferation of different EGFR C797S drug-resistant mutant cell lines was detected using the Cell Titer-Glo method. The different cell lines were cultured in RPMI 1640 complete culture medium containing 10% FBS under conditions of 37° C. and 5% CO2, the cells were collected by centrifugation when growing to a certain density, and adjusted to appropriate cell density after counting, the cells were spread on a white 96-well plate at 90 μL/well, and cultured in a 37° C., 5% CO2 incubator overnight, prepared compound solutions of different concentrations were added at 10 μL/well, corresponding solvent controls were set, and all wells were cultured in a 37° C., 5% CO2 incubator for 72 hours, 50 μL of CellTiter-Glo solution was added to each well, shook and mixed evenly, and incubated in the dark for 10 minutes, and a BioTek Synergy H1 microplate reader was used for reading.
The luminescence signal value was used to calculate the inhibition rate. Graphpad Prism software was used to fit the concentration and inhibition rate to a nonlinear regression curve, so as to obtain the IC50 value, as shown in Tables 3 and 4 below for details.

| pIC50 | Compound |
| --- | --- |
| 7.70 | CC(C)c1ccc(N2C[C@H](CS(C)(=O)=O)[C@H]2C)c2cnc(Nc3ccnc(-c4cn(CCC#N)nc4Cl)n3)cc12 [Example 67, 3-(3-chloro-4-(4-((5-isopropyl-8-((2R,3S)-2-methyl-3-((methanesulfonyl)methyl)azetidin-1-yl)isoquinolin-3-yl)amino)pyrimidin-2-yl)-1H-pyrazol-1-yl)propanenitrile] |
| 7.68 | CC(C)c1ccc(N2CC(N3CCCS3(=O)=O)C2)c2cnc(Nc3ccnc(-c4cn(C)nc4Cl)n3)cc12 [Example 68, 2-(1-(3-((2-(3-chloro-1-methyl-1H-pyrazol-4-yl)pyrimidin-4-yl)amino)-5-isopropylisoquinolin-8-yl)azetidin-3-yl)isothiazolidine 1,1-dioxide] |
| 7.29 | Cc1nn(C)cc1-c1nccc(Nc2cc3c(C(C)C)ccc(N4CC(N5CCCS5(=O)=O)C4)c3cn2)n1 [Example 69, 2-(1-(3-((2-(1,3-dimethyl-1H-pyrazol-4-yl)pyrimidin-4-yl)amino)-5-isopropylisoquinolin-8-yl)azetidin-3-yl)isothiazolidine 1,1-dioxide] |
| 7.02 | CC(C)c1ccc(N2C[C@H](CS(C)(=O)=O)[C@H]2C)c2cnc(Nc3ccnc(-c4cn(CCN)nc4Cl)n3)cc12 [Example 71, N-(2-(1-(2-aminoethyl)-3-chloro-1H-pyrazol-4-yl)pyrimidin-4-yl)-5-isopropyl-8-((2R,3S)-2-methyl-3-((methanesulfonyl)methyl)azetidin-1-yl)isoquinolin-3-amine] |
| 7.11 | COC(=O)NC1CN(c2ccc(C(C)C)c3cc(Nc4ccnc(-c5cn(C)nc5Cl)n4)ncc23)C1 [Example 72, methyl (1-(3-((2-(3-chloro-1-methyl-1H-pyrazol-4-yl)pyrimidin-4-yl)amino)-5-isopropylisoquinolin-8-yl)azetidin-3-yl)carbamate] |
| 7.55 | CC(C)c1ccc(N2CC(C[N+](=O)[O-])C2)c2cnc(Nc3ccnc(-c4cn(C)nc4Cl)n3)cc12 [Example 75, N-(2-(3-chloro-1-methyl-1H-pyrazol-4-yl)pyrimidin-4-yl)-5-isopropyl-8-(3-(nitromethyl)azetidin-1-yl)isoquinolin-3-amine] |
| 7.20 | CC(C)c1ccc(N2CC(C[S+](C)[O-])C2)c2cnc(Nc3ccnc(-c4cn(C)nc4Cl)n3)cc12 (centres unmarked) [Example 76, N-(2-(3-chloro-1-methyl-H-pyrazol-4-yl)pyrimidin-4-yl)-5-isopropyl-8-(3-((methylsulfinyl<sulfenyl>)methyl)azetidin-1-yl)isoquinolin-3-amine] |
| 7.92 | Cc1nn(C)c(F)c1-c1nccc(Nc2cc3c(C(C)C)ccc(N4C[C@H](CS(C)(=O)=O)[C@H]4C)c3cn2)n1 [Example 77, N-(2-(5-fluoro-1,3-dimethyl-1H-pyrazol-4-yl)pyrimidin-4-yl)-5-isopropyl-8-((2R,3S)-2-methyl-3-((methanesulfonyl)methyl)azetidin-1-yl)isoquinolin-3-amine] |
| 7.30 | CC(C)c1ccc(N2C[C@H](CS(C)(=O)=O)[C@H]2C)c2cnc(Nc3ccnc(-c4cn(C5COC5)nc4Cl)n3)cc12 [Example 81, N-(2-(3-chloro-1-(oxetan-3-yl)-1H-pyrazol-4-yl)pyrimidin-4-yl)-5-isopropyl-8-((2R,3S)-2-methyl-3-((methanesulfonyl)methyl)azetidin-1-yl)isoquinolin-3-amine] |
| 7.48 | CC(C)c1ccc(N2C[C@H](CS(C)(=O)=O)[C@H]2C)c2cnc(Nc3ccnc(-c4cn(CC(O)CF)nc4Cl)n3)cc12 (stereo partly drawn) [Example 82, 1-(3-chloro-4-(4-((5-isopropyl-8-((2R,3S)-2-methyl-3-((methanesulfonyl)methyl)azetidin-1-yl)isoquinolin-3-yl)amino)pyrimidin-2-yl)-1H-pyrazol-1-yl)-3-fluoropropan-2-ol] |
| 7.13 | Cc1nn(C)cc1-c1nccc(Nc2cc3c(C(C)C)ccc(N4CC(CS(C)(=O)=NC#N)C4)c3cn2)n1 (centres unmarked) [Example 83, N-(((1-(3-((2-(1,3-dimethyl-1H-pyrazol-4-yl)pyrimidin-4-yl)amino)-5-isopropylisoquinolin-8-yl)azetidin-3-yl)methyl)(methyl)(carbonyl)-l6-sulfanylidene)cyanamide] |
